Earlier results, collected in patent publication US5498598A, “Composition for nasal administration of desmopressin” (Ferring AB, priority 1995, dated 1996).

Details: in vivo

## NC(=O)CC[C@@H]1NC(=O)[C@H](Cc2ccccc2)NC(=O)[C@H](Cc2ccc(O)cc2)NC(=O)CCSSC[C@@H](C(=O)N2CCC[C@H]2C(=O)N[C@H](CCCN=C(N)N)C(=O)NCC(N)=O)NC(=O)[C@H](CC(N)=O)NC1=O [desmopressin, 1-(3-mercaptopropionic acid)-8-D-arginine-vasopressin]
  absorption of a given amount in larger volume versus the same amount in smaller volume: absorbed substantially less effectively
